Measured values as given in patent US8343990B2, “Substituted cyclopropyl compounds, compositions containing such compounds and methods of treatment” (Merck Sharp & Dohme Corp., priority 2008, dated 2013).

The compounds below were run against T1, GPR119 receptor (UniProt Q8TDV5, S309L, species not given) (assay: GPR119 signaling, cyclic AMP (cAMP) homogenous time resolved fluorescence (HTRF) assay). Settings: CHO cells with Gα15 and murine GPR119, or HEK293 Flp-In cells with human GPR119 S309L; table does not say which; read-out: Activity: inflection points, denoted as EC50 values (agonist activation of GPR119, cAMP).
T1 sequence (Q8TDV5 1-335 S309L): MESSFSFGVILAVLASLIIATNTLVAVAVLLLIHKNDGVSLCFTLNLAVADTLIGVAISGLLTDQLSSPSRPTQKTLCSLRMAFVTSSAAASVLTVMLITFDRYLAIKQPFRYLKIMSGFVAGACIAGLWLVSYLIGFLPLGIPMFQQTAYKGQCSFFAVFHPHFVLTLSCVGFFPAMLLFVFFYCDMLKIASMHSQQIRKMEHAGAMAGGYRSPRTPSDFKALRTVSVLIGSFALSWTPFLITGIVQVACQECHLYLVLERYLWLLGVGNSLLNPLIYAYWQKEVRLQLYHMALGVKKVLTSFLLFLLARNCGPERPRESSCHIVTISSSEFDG
Type: cell-based
Procedure, shortened: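 Agonist-induced cAMP measured in CHO cells expressing Gα15 plus murine GPR119, or HEK293 Flp-In cells expressing human S309L variant. Suspended cells exposed to compound titration 60 min at room temperature, lysed, HTRF read after 60 min; EC50 and efficacy versus internal agonist from 4-parameter fit.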

Structure (SMILES)	EC50 [µM]
Cc1nnc(-c2ccc(OCCC3CC3C3CCN(c4ncc(Cl)cn4)CC3)cc2F)o1 (single isomer, unassigned) [Ex 83 F, cis-5-chloro-2-[4-(2-{2-[3-fluoro-4-(5-methyl-1,3,4-oxadiazol-2-yl)phenoxy]ethyl}cyclopropyl)piperidin-1-yl]pyrimidine]	< 0.01
Cc1nnc(-c2ccc(OCCC3CC3C3CCN(c4ncc(Cl)cn4)CC3)cc2F)o1 (single isomer, unassigned) [Ex 83 S, cis-5-chloro-2-[4-(2-{2-[3-fluoro-4-(5-methyl-1,3,4-oxadiazol-2-yl)phenoxy]ethyl}cyclopropyl)piperidin-1-yl]pyrimidine]	< 0.01
CS(=O)(=O)c1ccc(OCC[C@H]2C[C@@H]2C2CCN(c3ncc(Cl)cn3)CC2)cc1 [Ex 91, 5-chloro-2-[4-((1R,2R)-2-{2-[4-(methylsulfonyl)phenoxy]ethyl}cyclopropyl)piperidin-1-yl]pyrimidine]	0.01 to 0.05
O=C(NC1CC1)c1ccc(OCC[C@H]2C[C@@H]2C2CCN(c3ncc(Cl)cn3)CC2)cc1F [Ex 93, 4-(2-{(1R,2R)-2-[1-(5-chloropyrimidin-2-yl)piperidin-4-yl]cyclopropyl}ethoxy)-N-cyclopropyl-2-fluorobenzamide]	< 0.01
N#Cc1ccc(OCC[C@H]2C[C@@H]2C2CCN(c3ncc(Cl)cn3)CC2)cc1F [Ex 94, 4-(2-{(1R,2R)-2-[1-(5-chloropyrimidin-2-yl)piperidin-4-yl]cyclopropyl}ethoxy)-2-fluorobenzonitrile]	0.05 to 0.2
Clc1cnc(N2CCC([C@H]3C[C@@H]3CCOc3ccc(-n4cncn4)cc3)CC2)nc1 [Ex 95, 5-chloro-2-[4-((1R,2R)-2-{2-[4-(1H-1,2,4-triazol-1-yl)phenoxy]ethyl}cyclopropyl)piperidin-1-yl]pyrimidine]	0.01 to 0.05
Cc1nnc(-c2ccc(OCC[C@H]3C[C@@H]3C3CCN(c4ncc(Cl)cn4)CC3)cc2F)o1 [Ex 96, 5-chloro-2-[4-((1R,2R)-2-{2-[3-fluoro-4-(5-methyl-1,3,4-oxadiazol-2-yl)phenoxy]ethyl}cyclopropyl)piperidin-1-yl)pyrimidine]	0.01 to 0.05
Fc1cc(OCC[C@H]2C[C@@H]2C2CCN(c3ncc(Cl)cn3)CC2)ccc1-c1nnc(C2CC2)o1 [Ex 97, 5-chloro-2-[4-((1R,2R)-2-{2-[4-(5-cyclopropyl-1,3,4-oxadiazol-2-yl)-3-fluorophenoxy]ethyl}cyclopropyl)piperidin-1-yl]pyrimidine]	0.01 to 0.05
CS(=O)(=O)c1ccc(OC[C@H]2C[C@@H]2CC2CCN(c3ncc(Cl)cn3)CC2)cc1 [Ex 103, 5-chloro-2-{4-[((1S,2S)-2-{[4-(methylsulfonyl)phenoxy]methyl}cyclopropyl)methyl]piperidin-1-yl}pyrimidine]	0.01 to 0.05
N#Cc1ccc(OC[C@@H]2C[C@H]2CC2CCN(c3ncc(Cl)cn3)CC2)cc1F [Ex 105, 4-[((1R,2R)-2-{[1-(5-chloropyrimidin-2-yl)piperidin-4-yl]methyl}cyclopropyl)methoxy]-2-fluorobenzonitrile]	> 0.2
O=C(NC1CC1)c1ccc(OC[C@@H]2C[C@H]2CC2CCN(c3ncc(Cl)cn3)CC2)cc1F [Ex 107, 4-[((1R,2R)-2-{[1-(5-chloropyrimidin-2-yl)piperidin-4-yl]methyl}cyclopropyl)methoxy]-N-cyclopropyl-2-fluorobenzamide]	0.01 to 0.05
O=C(NC1CC1)c1ccc(OC[C@H]2C[C@@H]2CC2CCN(c3ncc(Cl)cn3)CC2)cc1F [Ex 108, 4-[((1S,2S)-2-{[1-(5-chloropyrimidin-2-yl)piperidin-4-yl]methyl}cyclopropyl)methoxy]-N-cyclopropyl-2-fluorobenzamide]	0.01 to 0.05
Cc1nnc(-c2ccc(OC[C@@H]3C[C@H]3CC3CCN(c4ncc(Cl)cn4)CC3)cc2F)o1 [Ex 109, 5-chloro-2-{4-[((1R,2R)-2-{[3-fluoro-4-(5-methyl-1,3,4-oxadiazol-2-yl)phenoxy]methyl}cyclopropyl)methyl]piperidin-1-yl}pyrimidine]	0.05 to 0.2
Cc1nnc(-c2ccc(OC[C@H]3C[C@@H]3CC3CCN(c4ncc(Cl)cn4)CC3)cc2F)o1 [Ex 110, 5-chloro-2-{4-[((1S,2S)-2-{[3-fluoro-4-(5-methyl-1,3,4-oxadiazol-2-yl)phenoxy]methyl}cyclopropyl)methyl]piperidin-1-yl}pyrimidine]	0.01 to 0.05
NS(=O)(=O)c1ccc(OC[C@H]2C[C@@H]2CC2CCN(c3ncc(Cl)cn3)CC2)cc1 [Ex 112, 4-[((1S,2S)-2-{[1-(5-chloropyrimidin-2-yl)piperidin-4-yl]methyl}cyclopropyl)methoxy]benzenesulfonamide]	0.05 to 0.2

Results, then the compound that gave them:

EC50 [µM]	Structure (SMILES)
< 0.01	Clc1cnc(N2CCC([C@@H]3C[C@@H]3CCOc3ccc(-n4ccnn4)cc3)CC2)nc1 (single isomer, unassigned) [Ex 83aS, cis-5-chloro-2-[4-(2-{2-[4-(1H-1,2,3-triazol-1-yl)phenoxy]ethyl}cyclopropyl)piperidin-1-yl]pyrimidine]
0.05 to 0.2	Fc1cnc(N2CCC(C3CC3CCOc3ccc(-n4ccnn4)cc3)CC2)nc1 (single isomer, unassigned) [Ex 83bF, cis-5-fluoro-2-[4-(2-{2-[4-(1H-1,2,3-triazol-1-yl)phenoxy]ethyl}cyclopropyl)piperidin-1-yl]pyrimidine]
< 0.01	Fc1cnc(N2CCC(C3CC3CCOc3ccc(-n4ccnn4)cc3)CC2)nc1 (single isomer, unassigned) [Ex 83bS, cis-5-fluoro-2-[4-(2-{2-[4-(1H-1,2,3-triazol-1-yl)phenoxy]ethyl}cyclopropyl)piperidin-1-yl]pyrimidine]
< 0.01	Clc1cnc(N2CCC(C3CC3CCOc3ccc(-n4cnnn4)cc3)CC2)nc1 (single isomer, unassigned) [Ex 83cF, cis-5-chloro-2-[4-(2-{2-[4-(1H-tetrazol-1-yl)phenoxy]ethyl}cyclopropyl)piperidin-1-yl]pyrimidine]
< 0.01	Clc1cnc(N2CCC(C3CC3CCOc3ccc(-n4cnnn4)cc3)CC2)nc1 (single isomer, unassigned) [Ex 83cS, cis-5-chloro-2-[4-(2-{2-[4-(1H-tetrazol-1-yl)phenoxy]ethyl}cyclopropyl)piperidin-1-yl]pyrimidine]
0.01 to 0.05	Fc1cc(OCCC2CC2C2CCN(c3ncc(Cl)cn3)CC2)ccc1-n1cnnn1 (single isomer, unassigned) [Ex 83dF, cis-5-chloro-2-[4-(2-{2-[3-fluoro-4-(1H-tetrazol-1-yl)phenoxy]ethyl}cyclopropyl)piperidin-1-yl]pyrimidine]
< 0.01	Fc1cc(OCCC2CC2C2CCN(c3ncc(Cl)cn3)CC2)ccc1-n1cnnn1 (single isomer, unassigned) [Ex 83dS, cis-5-chloro-2-[4-(2-{2-[3-fluoro-4-(1H-tetrazol-1-yl)phenoxy]ethyl}cyclopropyl)piperidin-1-yl]pyrimidine]
0.05 to 0.2	Cc1nnc(-c2ccc(OCCC3CC3C3CCN(c4ncc(F)cn4)CC3)cc2F)o1 (single isomer, unassigned) [Ex 83eF, cis-5-fluoro-2-[4-(2-{2-[3-fluoro-4-(5-methyl-1,3,4-oxadiazol-2-yl)phenoxy]ethyl}cyclopropyl)piperidin-1-yl]pyrimidine]
< 0.01	Cc1nnc(-c2ccc(OCCC3CC3C3CCN(c4ncc(F)cn4)CC3)cc2F)o1 (single isomer, unassigned) [Ex 83eS, cis-5-fluoro-2-[4-(2-{2-[3-fluoro-4-(5-methyl-1,3,4-oxadiazol-2-yl)phenoxy]ethyl}cyclopropyl)piperidin-1-yl]pyrimidine]
